Laboratory results from patent US11643436B2, “Polypeptide compound, pharmaceutical composition, preparation method and application thereof” (CHENGDU SINTANOVO BIOTECHNOLOGY CO., LTD., priority 2019, dated 2023).
Read-outs that look alike come from different tables or passages of the source.

Experiments:
[1] = biological target: human δ-opioid receptor (Homo sapiens (Human), UniProt P41143); assay: Forskolin-stimulated cAMP inhibition in HEK293 cells, δ-opioid receptor; assay type: cell-based; conditions: HEK293 cells highly expressing human δ-opioid receptor, read-out: DOR (EC50)
Description: (§1) Forskolin can stimulate the release of cAMP from HEK293 cells with high expression of human κ (or μ, or δ)-opioid receptors. […] The efficacy of the compounds of the invention as κ-opioid receptor agonists was determined by measuring the ability of the compounds of Examples to inhibit adenylate cyclase activity.
(§2) Cell culture: The HEK293 cell line highly expressing human κ (or μ, or δ)-opioid receptor were cultured in DMEM medium containing 10% FBS.
(§3) Stimulation: the test compound was 4-fold diluted in a gradient manner to obtain 10 concentrations, and 50 nl of each was transferred to a 384-well plate, and then 10 nl Forskolin was added; the cells were digested, re-suspended, and counted; and then 10 μl of cell suspension (5×10^5 cell/mL) was added, and the cells were mixed gently, and incubated at 23° C. for 60 minutes.
(§4) Detection: cAMP Assay Kit (Cisbio) was used, cAMPD2 and Anti-cAMP conjugate were added, and the resultant mixture was incubated for 1 h at room temperature. The plate was read using envision (Perkin Elmer) and EC50 was obtained by means of fitting with a four-parameter equation.

[2] = biological target: human μ-opioid receptor (Homo sapiens (Human), UniProt P35372); assay: Forskolin-stimulated cAMP inhibition in HEK293 cells, μ-opioid receptor; assay type: cell-based; conditions: HEK293 cells highly expressing human μ-opioid receptor, read-out: MOR (EC50)
Description: as §1, §2, §3, §4

[3] = biological target: human κ-opioid receptor (Homo sapiens (Human), UniProt P41145); assay: Forskolin-stimulated cAMP inhibition in HEK293 cells, κ-opioid receptor agonism; assay type: cell-based; conditions: HEK293 cells highly expressing human κ-opioid receptor, read-out: KOR (EC50)
Description: as §1, §2, §3, §4

[4] = Caco-2 membrane permeability assay; assay type: in vitro ADME; conditions: human, Caco-2, A-B direction, pH 7.4, 37° C.
Description: The Caco-2 cell line is a human colon adenocarcinoma cell line that differentiates in culture and is used to model the epithelial lining of the human small intestine. Compounds of the present invention were tested in a membrane permeability assay using Caco-2 cell membrane layer in a standard assay. The apparent permeability coefficient (Papp) can be determined in the apical-to-basolateral (A-B) direction across cell monolayers cultured on 96-well polycarbonate membrane filters. The compound was maintained at pH 7.4 on the […] at a concentration of 5 μM, and the test plate was gently shaken and incubated at 37° C. for 120 minutes. Samples were taken at time zero from the donor side and at the end of the incubation period from both the donor and acceptor sides. Samples were analyzed by HPLC-MS/MS. The Papp value (expressed as […]) was then calculated based on the appearance rate of compound on the recipient side. Papp can be calculated by the following equation: Papp=(VA×[drug]acceptor)/(Area×Time×[drug]initial, donor) wherein Papp is the apparent permeability; VA is the volume of the acceptor side, Area is the surface area of the membrane, [drug]initial, donor is the concentration on the donor side at time zero, [drug]acceptor is the concentration of the compounds on the recipient side at the end of the incubation period, Time is the total incubation time.

[5] = system: ICR male mice; assay: Acetic acid writhing test in mice; assay type: in vivo; conditions: IV administration 15 minutes before 0.6% acetic acid i.p.; writhes within 15 min
Description: The analgesic effect of the compound of the invention was evaluated by measuring the analgesic ED50 of the compounds of Examples in the acetic acid writhing test in mice.
The ICR male mice (18-25 g) were randomly separated into the drug group and the model group. 15 minutes after IV administration, 0.6% (v/v) acetic acid solution was intraperitoneally injected at 10 mL/kg. The number of writhes of the mice within 15 min was counted. The inhibition rate on the writhes was calculated based on the number of writhes. The ED50 of the compound to be tested was calculated based on inhibition rate according to a four-parameter equation.

[6] = biological target: cytochrome P450 CYP 1A2 (Homo sapiens (Human), UniProt P05177); assay: Inhibition of cytochrome P450 in human liver microsomes, CYP 1A2; assay type: in vitro ADME
Description: (§5) The human liver microsomes (0.253 mg/mL protein) containing cytochrome P450, test compounds (0.05-50 μM), CYPs substrates (10 μM […], 5 μM diclofenac, 30 μM mephenytoin, 5 μM dextromethorphan hydrobromide, 2 μM midazolam), 1.0 mM NADP were incubated at 37° C. for 10 minutes. Naflavone, sulfafenpyrazole, N-3-benzylnivan, quinidine, and ketoconazole were used as reference inhibitors.

[7] = biological target: cytochrome P450 CYP 2C19 (Homo sapiens (Human), UniProt P33261); assay: Inhibition of cytochrome P450 in human liver microsomes, CYP 2C19; assay type: in vitro ADME
Description: as §5

[8] = biological target: cytochrome P450 CYP 2C9 (Homo sapiens (Human), UniProt P11712); assay: Inhibition of cytochrome P450 in human liver microsomes, CYP 2C9; assay type: in vitro ADME
Description: as §5

[9] = biological target: cytochrome P450 CYP 3A4 (Homo sapiens (Human), UniProt P08684); assay: Inhibition of cytochrome P450 in human liver microsomes, CYP 3A4; assay type: in vitro ADME
Description: as §5

[10] = biological target: cytochrome P450 CYP 2D6 (Homo sapiens (Human), UniProt P10635); assay: Inhibition of cytochrome P450 in human liver microsomes, CYP 2D6; assay type: in vitro ADME
Description: as §5

Chain of human δ-opioid receptor (P41143 whole entry, looked up): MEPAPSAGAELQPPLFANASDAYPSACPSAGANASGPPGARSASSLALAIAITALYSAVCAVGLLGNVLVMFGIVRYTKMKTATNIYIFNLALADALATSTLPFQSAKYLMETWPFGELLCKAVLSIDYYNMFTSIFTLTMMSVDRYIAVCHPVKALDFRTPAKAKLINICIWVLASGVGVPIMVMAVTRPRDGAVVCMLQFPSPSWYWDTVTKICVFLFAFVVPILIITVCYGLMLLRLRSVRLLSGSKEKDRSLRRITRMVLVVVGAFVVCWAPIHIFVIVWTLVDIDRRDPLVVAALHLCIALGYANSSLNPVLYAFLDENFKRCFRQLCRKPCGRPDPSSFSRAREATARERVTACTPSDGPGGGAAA
Chain of cytochrome P450 CYP 2C9 (P11712 whole entry): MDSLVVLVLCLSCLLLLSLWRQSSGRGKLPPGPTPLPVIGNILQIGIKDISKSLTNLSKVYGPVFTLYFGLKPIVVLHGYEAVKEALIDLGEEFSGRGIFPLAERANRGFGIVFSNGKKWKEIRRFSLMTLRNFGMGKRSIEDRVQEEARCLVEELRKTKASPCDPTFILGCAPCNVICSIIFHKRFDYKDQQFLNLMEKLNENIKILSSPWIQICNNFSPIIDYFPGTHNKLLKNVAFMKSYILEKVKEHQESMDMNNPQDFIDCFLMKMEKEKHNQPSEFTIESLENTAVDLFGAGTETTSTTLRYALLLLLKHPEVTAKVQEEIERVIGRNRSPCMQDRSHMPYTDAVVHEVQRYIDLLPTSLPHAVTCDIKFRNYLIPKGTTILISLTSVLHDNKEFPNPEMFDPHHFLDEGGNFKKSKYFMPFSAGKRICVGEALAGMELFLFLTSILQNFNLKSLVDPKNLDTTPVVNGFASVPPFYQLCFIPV
Chain of cytochrome P450 CYP 3A4 (P08684 whole entry): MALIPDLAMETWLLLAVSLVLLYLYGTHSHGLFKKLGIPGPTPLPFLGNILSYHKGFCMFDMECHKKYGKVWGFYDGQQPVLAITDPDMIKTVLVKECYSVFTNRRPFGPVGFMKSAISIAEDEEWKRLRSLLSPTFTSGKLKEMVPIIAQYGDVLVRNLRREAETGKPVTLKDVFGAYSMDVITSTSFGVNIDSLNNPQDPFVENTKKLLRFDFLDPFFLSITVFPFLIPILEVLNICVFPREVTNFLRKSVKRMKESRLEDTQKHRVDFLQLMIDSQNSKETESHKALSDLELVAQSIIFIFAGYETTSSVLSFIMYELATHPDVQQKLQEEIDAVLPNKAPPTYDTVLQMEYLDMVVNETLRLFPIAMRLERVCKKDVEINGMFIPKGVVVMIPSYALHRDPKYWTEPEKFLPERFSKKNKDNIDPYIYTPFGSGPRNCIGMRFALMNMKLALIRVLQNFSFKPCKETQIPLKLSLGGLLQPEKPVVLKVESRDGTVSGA
Chain of cytochrome P450 CYP 2C19 (P33261 whole entry): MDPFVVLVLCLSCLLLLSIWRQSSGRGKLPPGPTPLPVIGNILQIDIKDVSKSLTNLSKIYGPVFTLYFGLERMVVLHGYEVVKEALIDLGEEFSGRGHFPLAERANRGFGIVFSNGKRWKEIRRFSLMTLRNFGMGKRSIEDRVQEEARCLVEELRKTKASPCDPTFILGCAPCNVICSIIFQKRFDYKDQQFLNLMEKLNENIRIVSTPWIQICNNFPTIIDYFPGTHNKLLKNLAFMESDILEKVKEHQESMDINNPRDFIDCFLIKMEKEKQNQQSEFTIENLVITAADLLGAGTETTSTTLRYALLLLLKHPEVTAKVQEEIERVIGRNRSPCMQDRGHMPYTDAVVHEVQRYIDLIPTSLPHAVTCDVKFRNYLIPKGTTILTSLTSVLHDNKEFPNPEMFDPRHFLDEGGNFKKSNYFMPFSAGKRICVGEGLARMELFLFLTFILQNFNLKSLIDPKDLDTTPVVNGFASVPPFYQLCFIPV
Chain of cytochrome P450 CYP 2D6 (P10635 whole entry): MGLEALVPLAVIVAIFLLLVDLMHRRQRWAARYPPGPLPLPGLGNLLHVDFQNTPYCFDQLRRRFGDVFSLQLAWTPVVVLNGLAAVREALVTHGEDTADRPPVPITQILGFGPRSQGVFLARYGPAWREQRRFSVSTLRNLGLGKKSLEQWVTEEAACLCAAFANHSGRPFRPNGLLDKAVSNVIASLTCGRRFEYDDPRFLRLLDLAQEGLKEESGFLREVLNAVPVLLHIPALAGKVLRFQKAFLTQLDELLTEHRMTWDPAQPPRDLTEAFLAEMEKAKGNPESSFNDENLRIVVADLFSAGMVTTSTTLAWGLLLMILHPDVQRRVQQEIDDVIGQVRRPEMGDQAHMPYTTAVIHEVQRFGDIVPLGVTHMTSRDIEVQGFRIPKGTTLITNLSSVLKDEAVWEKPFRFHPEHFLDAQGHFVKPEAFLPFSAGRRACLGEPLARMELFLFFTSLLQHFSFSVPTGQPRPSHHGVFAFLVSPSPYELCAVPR
Chain of cytochrome P450 CYP 1A2 (P05177 whole entry): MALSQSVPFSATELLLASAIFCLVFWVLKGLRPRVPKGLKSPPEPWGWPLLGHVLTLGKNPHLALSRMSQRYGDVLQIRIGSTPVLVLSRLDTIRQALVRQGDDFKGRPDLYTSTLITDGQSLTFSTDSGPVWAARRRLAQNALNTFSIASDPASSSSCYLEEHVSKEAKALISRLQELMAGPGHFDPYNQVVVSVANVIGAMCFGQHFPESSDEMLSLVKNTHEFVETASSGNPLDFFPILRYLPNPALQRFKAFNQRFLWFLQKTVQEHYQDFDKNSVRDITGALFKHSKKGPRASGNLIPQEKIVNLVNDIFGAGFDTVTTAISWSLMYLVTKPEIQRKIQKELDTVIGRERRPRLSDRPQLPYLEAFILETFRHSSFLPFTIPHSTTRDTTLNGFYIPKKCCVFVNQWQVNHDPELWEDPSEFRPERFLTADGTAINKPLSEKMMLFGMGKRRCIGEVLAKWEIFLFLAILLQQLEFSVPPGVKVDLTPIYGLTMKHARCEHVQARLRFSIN

Q: Which results are given for `CC(C)C[C@@H](NC(=O)[C@@H](Cc1ccccc1)NC(=O)[C@H](N)Cc1ccccc1)C(=O)N[C@H](CCCCN)C(=O)N1CCC(B(O)O)CC1` [TM-1]?
A: EC50 [1]: > 10 µM; EC50 [2]: > 10 µM; EC50 [3]: 0.0984 nM

Q: Which results are given for `CC(C)C[C@@H](NC(=O)[C@@H](Cc1ccccc1)NC(=O)[C@H](N)Cc1ccccc1)C(=O)N[C@H](CCCCN)C(=O)N1CC[C@@H](B(O)O)C1` [TM-2A, (R)-1-(D-Phe-D-Phe-D-Leu-D-Lys)-3-pyrrolidineboronic acid]?
A: Papp A→B at 120 min, 5 μM [4]: < 0.05 ×10⁻⁶ cm/s; EC50 [1]: > 10 µM; EC50 [2]: > 10 µM; ED50 [5]: 0.679 µg/kg; EC50 [3]: 0.0331 nM

Q: Which results are given for `CC(C)C[C@@H](NC(=O)[C@@H](Cc1ccccc1)NC(=O)[C@H](N)Cc1ccccc1)C(=O)N[C@H](CCCCN)C(=O)N1CC=C(B(O)O)C1` [TM-3]?
A: Papp A→B at 120 min, 5 μM [4]: < 0.2 ×10⁻⁶ cm/s; EC50 [1]: > 10 µM; EC50 [2]: > 10 µM; EC50 [3]: 0.0547 nM

Q: Which EC50 [1] does the source give for `CC(C)C[C@@H](NC(=O)[C@@H](Cc1ccccc1)NC(=O)[C@H](N)Cc1ccccc1)C(=O)N[C@H](CCCCN)C(=O)N1CCC=C(B(O)O)C1` [TM-5] here?
A: > 10 µM

Q: And the EC50 [2]?
A: > 10 µM

Q: And the EC50 [3]?
A: 0.027 nM

Q: For `CC(C)C[C@@H](NC(=O)[C@@H](Cc1ccccc1)NC(=O)[C@H](N)Cc1ccccc1)C(=O)N[C@H](CCCCN)C(=O)N1CCC2(CC1)CC(B(O)O)C2` [TM-7], which EC50 [1] is on record?
A: > 10 µM

Q: And the EC50 [2]?
A: > 10 µM

Q: What about the EC50 [3] of the same compound?
A: 0.0087 nM

Q: With `CC(C)C[C@@H](NC(=O)[C@@H](Cc1ccccc1)NC(=O)[C@H](N)Cc1ccccc1)C(=O)N[C@H](CCCCN)C(=O)N1CCC(N)(B(O)O)CC1` [TM-8] as the compound, how does the Papp A→B at 120 min, 5 μM [4] read?
A: < 0.1 ×10⁻⁶ cm/s

Q: What about the EC50 [1] of the same compound?
A: > 10 µM

Q: And the EC50 [2]?
A: > 10 µM

Q: What about the EC50 [3] of the same compound?
A: 0.0846 nM

Q: Which results are given for `CC(C)C[C@@H](NC(=O)[C@@H](Cc1ccccc1)NC(=O)[C@H](N)Cc1ccccc1)C(=O)N[C@H](CCCCN)C(=O)N1CCC[C@H]1B(O)O` [TM-9A, (R)-1-(D-Phe-D-Phe-D-Leu-D-Lys)-2-pyrrolidineboronic acid]?
A: Papp A→B at 120 min, 5 μM [4]: < 0.05 ×10⁻⁶ cm/s; EC50 [1]: > 10 µM; EC50 [2]: > 10 µM; ED50 [5]: 0.377 µg/kg

Q: For `CC(C)C[C@@H](NC(=O)[C@@H](Cc1ccccc1)NC(=O)[C@H](N)Cc1ccccc1)C(=O)N[C@H](CCCCN)C(=O)N1CCCC[C@H]1B(O)O` [TM-13A, (R)-1-(D-Phe-D-Phe-D-Leu-D-Lys)-2-piperidine boronic acid], which EC50 [1] is on record?
A: > 10 µM

Q: And the EC50 [2]?
A: > 10 µM

Q: And the EC50 [3]?
A: 0.0946 nM

Q: With `COCCOCCNCCCC[C@@H](NC(=O)[C@@H](CC(C)C)NC(=O)[C@@H](Cc1ccccc1)NC(=O)[C@H](N)Cc1ccccc1)C(=O)N1CC[C@H](B(O)O)C1` [TM-22B, (S)-1-(N2-D-Phe-D-Phe-D-Leu-N6-(2-(2-methoxyethoxy)ethyl)-D-Lys)-3-pyrrolidineboronic acid] as the compound, how does the IC50 [6] read?
A: > 50 µM

Q: What about the IC50 [7] of the same compound?
A: > 50 µM

Q: What about the Papp A→B at 120 min, 5 μM [4] of the same compound?
A: < 0.1 ×10⁻⁶ cm/s

Q: What about the EC50 [1] of the same compound?
A: > 10 µM

Q: What about the IC50 [8] of the same compound?
A: > 50 µM

Q: What about the IC50 [9] of the same compound?
A: > 50 µM

Q: And the EC50 [2]?
A: > 10 µM

Q: And the EC50 [3]?
A: 0.0095 nM

Q: And the IC50 [10]?
A: > 50 µM

Q: What does the source list for `CC(C)C[C@@H](NC(=O)[C@@H](Cc1ccccc1)NC(=O)[C@H](N)Cc1ccccc1)C(=O)N[C@H](CCCCN)C(=O)NCCB(O)O` [TM-26]?
A: IC50 ([6]; microsomes): > 50 µM; IC50 ([7]; microsomes): > 50 µM; Papp A→B at 120 min, 5 μM [4]: < 0.1 ×10⁻⁶ cm/s; IC50 ([8]; microsomes): > 50 µM; IC50 ([9]; microsomes): > 50 µM; IC50 ([10]; microsomes): > 50 µM
